Experimental findings from PubChem BioAssay AID248 (DTP/NCI, 2004) are described below.

This assay relates to L1210 leukemia ip in BDF1 mice, survival T/C. As to the kind of experiment: NCI In Vivo Anticancer Drug Screen. Data for tumor model L1210 Leukemia (intraperitoneal) in B6D2F1 (BDF1) mice. The settings on record: endpoint: mean survival time, higher = longer survival. A digest of the protocol:
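Transplantable tumor model; survival measured in treated vs vehicle control mice. Value = treated/control.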

[1] abbreviates: dose: 400.0 mg/kg/injection, schedule: Q01DX001 (ip), vehicle: carboxymethylcellulose (CMC).
The mark [2] stands for this setting: dose: 100.0 mg/kg/injection, schedule: Q01DX001 (ip), vehicle: carboxymethylcellulose (CMC).
Setting [3] is: dose: 200.0 mg/kg/injection, schedule: Q01DX001 (ip), vehicle: carboxymethylcellulose (CMC).
[4] abbreviates: dose: 200.0 mg/kg/injection, schedule: Q04DX003 (ip), vehicle: Klucel (hydroxypropylcellulose) (HPC).
The mark [5] stands for this setting: dose: 100.0 mg/kg/injection, schedule: Q01DX001 (ip), vehicle: Klucel (hydroxypropylcellulose) (HPC).
[6] abbreviates: dose: 100.0 mg/kg/injection, schedule: Q04DX003 (ip), vehicle: Klucel (hydroxypropylcellulose) (HPC).
Setting [7] is: dose: 400.0 mg/kg/injection, schedule: Q04DX003 (ip), vehicle: Klucel (hydroxypropylcellulose) (HPC).
[8] abbreviates: dose: 100.0 mg/kg/injection, schedule: Q01DX009 (ip), vehicle: Klucel (hydroxypropylcellulose) (HPC).
Setting [9] is: dose: 200.0 mg/kg/injection, schedule: Q01DX009 (ip), vehicle: Klucel (hydroxypropylcellulose) (HPC).
The mark [10] stands for this setting: dose: 200.0 mg/kg/injection, schedule: Q01DX001 (ip), vehicle: Klucel (hydroxypropylcellulose) (HPC).
The mark [11] stands for this setting: dose: 400.0 mg/kg/injection, schedule: Q01DX001 (ip), vehicle: Klucel (hydroxypropylcellulose) (HPC).
Where [12] appears, read: dose: 100.0 mg/kg/injection, schedule: Q04DX002 (ip), vehicle: saline with Tween-80.
Setting [13] is: dose: 100.0 mg/kg/injection, schedule: Q01DX001 (ip), vehicle: saline.
Setting [14] is: dose: 200.0 mg/kg/injection, schedule: Q01DX001 (ip), vehicle: saline.
[15] abbreviates: dose: 400.0 mg/kg/injection, schedule: Q01DX001 (ip), vehicle: saline.
[16] abbreviates: dose: 100.0 mg/kg/injection, schedule: Q01DX001 (ip), vehicle: other.
The mark [17] stands for this setting: dose: 200.0 mg/kg/injection, schedule: Q01DX001 (ip), vehicle: other.
The mark [18] stands for this setting: dose: 400.0 mg/kg/injection, schedule: Q01DX001 (ip), vehicle: other.
The mark [19] stands for this setting: dose: 400.0 mg/kg/injection, schedule: Q01DX009 (ip), vehicle: Klucel (hydroxypropylcellulose) (HPC).

Several values for one entry are separate records, joined by “and”; a condition that tells them apart may be missing. Identical values can stand only once. Toxic doses and inconclusive results are not listed.

`CC(N)(CCCC(=O)O)C(=O)O` (centres undefined): the T/C (dose: 176.0 mg/kg/injection, schedule: Q01DX001 (ip), vehicle: carboxymethylcellulose (CMC)) was 95 % of control; the T/C (dose: 264.0 mg/kg/injection, schedule: Q01DX001 (ip), vehicle: carboxymethylcellulose (CMC)) is 100 % of control; the T/C under setting [1] is 95 % of control; the T/C (dose: 600.0 mg/kg/injection, schedule: Q01DX001 (ip), vehicle: carboxymethylcellulose (CMC)) is 98 % of control.

Regarding `O=C(NC(Cc1ccccc1)C(=O)CBr)OCc1ccccc1` (centres undefined), the T/C (dose: 100.0 mg/kg/injection, schedule: Q01DX001 (ip), vehicle: saline with Tween-80) is 103 % of control.

On to `S=C(Nc1ccccn1)Nc1ccccn1`, for which the T/C runs as follows: (dose: 50.0 mg/kg/injection, schedule: Q01DX009 (ip), vehicle: saline with Tween-80) 96 % of control; (dose: 50.0 mg/kg/injection, schedule: Q04DX003 (ip), vehicle: Klucel (hydroxypropylcellulose) (HPC)) 94 % of control; (dose: 50.0 mg/kg/injection, schedule: Q04DX003 (ip), vehicle: saline with Tween-80) 96 % of control; under setting [2], 95 % of control; (dose: 100.0 mg/kg/injection, schedule: Q01DX009 (ip), vehicle: saline with Tween-80) 103 % of control; (dose: 100.0 mg/kg/injection, schedule: Q04DX003 (ip), vehicle: saline with Tween-80) 101 % of control. Moreover, the T/C is, setting by setting: under setting [3], 95 % of control; (dose: 200.0 mg/kg/injection, schedule: Q01DX009 (ip), vehicle: saline with Tween-80) 96 % of control; under setting [4], 87 % of control; (dose: 200.0 mg/kg/injection, schedule: Q04DX003 (ip), vehicle: saline with Tween-80) 184 % of control; under setting [1], 92 % of control.

As for `COC(=O)C1=COC(C)C(C=O)C1CC(=O)O` (centres undefined), the T/C was 108 % of control (dose: 12.5 mg/kg/injection, schedule: Q01DX009 (ip), vehicle: saline); 103 % of control (dose: 20.0 mg/kg/injection, schedule: Q01DX001 (ip), vehicle: saline); 103 % of control (dose: 25.0 mg/kg/injection, schedule: Q01DX009 (ip), vehicle: saline); 110 % of control (dose: 25.0 mg/kg/injection, schedule: Q04DX003 (ip), vehicle: saline); 118 % of control (dose: 40.0 mg/kg/injection, schedule: Q01DX001 (ip), vehicle: saline); 111 % of control (dose: 50.0 mg/kg/injection, schedule: Q04DX003 (ip), vehicle: saline). Further, the T/C (dose: 80.0 mg/kg/injection, schedule: Q01DX001 (ip), vehicle: saline) was 118 % of control.

With `C=CCSc1ccnc(N)n1`, the T/C runs as follows: (dose: 50.0 mg/kg/injection, schedule: Q01DX001 (ip), vehicle: Klucel (hydroxypropylcellulose) (HPC)) 103 % of control; under setting [5], 101 % of control.

Turning to `O=C(Nc1ccccc1)c1ccc([N+](=O)[O-])cc1Cl`, the T/C by setting is: under setting [6], 100 % of control; under setting [4], 95 % of control; under setting [7], 90 % of control.

Regarding `O=C(O)CC(CC(=O)O)c1cccc([N+](=O)[O-])c1`, the T/C runs as follows: (dose: 100.0 mg/kg/injection, schedule: Q01DX001 (ip), vehicle: acetone) 96 % of control; (dose: 200.0 mg/kg/injection, schedule: Q01DX001 (ip), vehicle: acetone) 98 % of control; (dose: 400.0 mg/kg/injection, schedule: Q01DX001 (ip), vehicle: acetone) 98 % of control.

On to `CC1CCc2c(c3c(=O)[nH]c(=O)[nH]c3oc2=O)C1` (centres undefined), for which the T/C (dose: 50.0 mg/kg/injection, schedule: Q01DX009 (ip), vehicle: Klucel (hydroxypropylcellulose) (HPC)) is 105 % of control; the T/C under setting [8] is 93 % of control; the T/C under setting [9] was 89 % of control.

`N#CCNC(=O)c1ccc(I)cc1`: the T/C reads like this: under setting [5], 111 % of control; under setting [10], 95 % of control; under setting [11], 106 % of control.

With `CCN(CC)CCC(O)c1cc(-c2ccc(Cl)cc2)nc2ccc(OC)cc12` (centres undefined), the T/C reads like this: under setting [2], 94 % of control; (dose: 100.0 mg/kg/injection, schedule: Q04DX003 (ip), vehicle: carboxymethylcellulose (CMC)) 104 % of control; under setting [3], 92 % of control; (dose: 200.0 mg/kg/injection, schedule: Q04DX003 (ip), vehicle: carboxymethylcellulose (CMC)) 114 % of control; under setting [1], 94 % of control; (dose: 400.0 mg/kg/injection, schedule: Q04DX003 (ip), vehicle: carboxymethylcellulose (CMC)) 110 % of control.

In the case of `CCc1cc(/C=C2\C(=O)C=Cc3ccccc32)c(O)s1`, the T/C is, setting by setting: under setting [12], 89 % of control; (dose: 400.0 mg/kg/injection, schedule: Q04DX002 (ip), vehicle: saline with Tween-80) 89 % of control.

In the case of `CCS(=O)(=O)/C=C/c1cccs1`, the T/C is 104 % of control under setting [8] and 100 % of control under setting [9].

For the compound `Cn1nnc(C(N)=O)n1`, the T/C under setting [13] was 93 % of control, the T/C under setting [14] was 98 % of control and the T/C under setting [15] was 94 % of control.

In the case of `CC(=O)C(Cl)C(C)=O.CC(=O)C(Cl)C(C)=O.CC(=O)CC(C)=O.[Rh]`, the T/C (dose: 50.0 mg/kg/injection, schedule: Q01DX001 (ip), vehicle: other) was 102 % of control; the T/C under setting [16] was 98 % of control; the T/C under setting [17] is 96 % of control; the T/C under setting [18] is 98 % of control.

`Cc1cc(CSC2=NCCN2)c(C)cc1CSC1=NCCN1`: the T/C reads like this: (dose: 25.0 mg/kg/injection, schedule: Q04DX002 (ip), vehicle: saline with Tween-80) 111 % of control; (dose: 50.0 mg/kg/injection, schedule: Q04DX002 (ip), vehicle: saline with Tween-80) 100 % of control; under setting [12], 101 % of control and 109 % of control.

Regarding `Cc1csc[n+]1C1CCCCC1`, for the setting “dose: 75.0 mg/kg/injection, schedule: Q01DX001 (ip), vehicle: saline”, the T/C was 100 % of control.

Regarding `O=C(O)C1C=CC(C(=O)O)c2ccccc21` (centres undefined), the T/C by setting is: under setting [6], 102 % of control; under setting [4], 96 % of control; under setting [7], 98 % of control.

As to `COC(=O)CCC(C(=O)OC)P(=O)(OC(C)C)OC(C)C` (centres undefined), the T/C was 96 % of control under setting [13], 102 % of control under setting [14] and 86 % of control under setting [15].

Consider `CC(=O)OC1CCCC23CC(CC12)C(C)(C)C3Br` (centres undefined), for which the T/C runs as follows: under setting [8], 95 % of control; under setting [6], 97 % of control; under setting [9], 100 % of control; under setting [4], 93 % of control; under setting [19], 97 % of control; under setting [7], 95 % of control.

For `CCOC(=O)Nc1cc2c(nnn2C(c2ccccc2)c2ccccc2)c(N)n1`, the T/C is 112 % of control (dose: 5.0 mg/kg/injection, schedule: Q01DX001 (ip), vehicle: other); 98 % of control (dose: 10.0 mg/kg/injection, schedule: Q01DX001 (ip), vehicle: other); 93 % of control (dose: 20.0 mg/kg/injection, schedule: Q01DX001 (ip), vehicle: other); 91 % of control (dose: 40.0 mg/kg/injection, schedule: Q01DX001 (ip), vehicle: other); 86 % of control (dose: 80.0 mg/kg/injection, schedule: Q01DX001 (ip), vehicle: other).

Regarding `S=c1nc[nH]c2cc[nH]c12`, the T/C was 95 % of control under setting [16], 98 % of control under setting [17] and 101 % of control under setting [18].

Take `CCOC(=O)C/C(C(=O)O)=C(\C)c1ccc2ccccc2c1`: the T/C was 101 % of control under setting [5]; 95 % of control under setting [8]; 95 % of control under setting [10]; 100 % of control under setting [9]; 95 % of control under setting [11]; 86 % of control under setting [19].
